Tests used:
Adenylate cyclase type 1 [1] = target: T1, Adenylate cyclase type 1 (Homo sapiens, UniProt Q08828); assay: Maximum stimulation activity measured with 100 uM forskolin mediated by Adenylate cyclase 1; assay type: functional
Target sequence in this assay (Q08828 whole entry, looked up): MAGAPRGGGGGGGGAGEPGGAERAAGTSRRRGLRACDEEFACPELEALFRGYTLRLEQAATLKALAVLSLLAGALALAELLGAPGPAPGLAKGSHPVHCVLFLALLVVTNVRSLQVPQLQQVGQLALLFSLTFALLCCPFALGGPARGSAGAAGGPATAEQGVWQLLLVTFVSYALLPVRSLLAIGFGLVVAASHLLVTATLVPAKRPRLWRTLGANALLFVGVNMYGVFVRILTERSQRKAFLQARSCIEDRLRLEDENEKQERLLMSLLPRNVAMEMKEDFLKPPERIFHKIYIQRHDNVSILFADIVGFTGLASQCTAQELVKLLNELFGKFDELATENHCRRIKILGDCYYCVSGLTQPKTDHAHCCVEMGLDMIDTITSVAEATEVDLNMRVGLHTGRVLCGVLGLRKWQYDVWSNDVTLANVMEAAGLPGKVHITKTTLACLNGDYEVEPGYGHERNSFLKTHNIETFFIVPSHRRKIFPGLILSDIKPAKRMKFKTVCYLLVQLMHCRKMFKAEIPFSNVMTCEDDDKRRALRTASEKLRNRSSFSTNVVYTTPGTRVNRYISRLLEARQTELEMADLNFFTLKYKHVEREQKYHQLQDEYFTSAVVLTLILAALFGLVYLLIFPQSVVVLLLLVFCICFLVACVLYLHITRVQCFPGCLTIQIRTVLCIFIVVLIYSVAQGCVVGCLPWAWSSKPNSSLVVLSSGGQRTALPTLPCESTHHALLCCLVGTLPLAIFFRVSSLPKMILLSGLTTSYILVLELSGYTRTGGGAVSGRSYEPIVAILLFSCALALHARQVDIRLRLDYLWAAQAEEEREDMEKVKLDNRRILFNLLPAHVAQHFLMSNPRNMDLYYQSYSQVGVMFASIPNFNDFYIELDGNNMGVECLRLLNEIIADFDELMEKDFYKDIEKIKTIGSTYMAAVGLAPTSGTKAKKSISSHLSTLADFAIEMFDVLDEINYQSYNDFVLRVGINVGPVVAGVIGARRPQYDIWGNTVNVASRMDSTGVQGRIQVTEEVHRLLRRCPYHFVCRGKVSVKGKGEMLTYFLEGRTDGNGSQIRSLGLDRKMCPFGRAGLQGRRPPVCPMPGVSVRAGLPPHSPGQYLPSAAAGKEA

Adenylate cyclase type 1 [2] = target: T1, Adenylate cyclase type 1; assay: (§1) Inhibition of [125 I]6-IHPP-forskolin binding to adenylate cyclase 1
Target sequence in this assay (Q08828 whole entry): as the sequence (Q08828 whole entry, looked up) above

Adenylate cyclase type 1 [3] = target: T1, Adenylate cyclase type 1; assay: Ability to activate the conversion of [32P] ATP to [32P]-cyclic AMP mediated by adenylate cyclase 1; assay type: functional
Target sequence in this assay (Q08828 whole entry): as the sequence (Q08828 whole entry, looked up) above

Adenylate cyclase type 1 [4] = target: T1, Adenylate cyclase type 1; assay: as §1; remark: listed apart in the source
Target sequence in this assay (Q08828 whole entry): as the sequence (Q08828 whole entry, looked up) above

Adenylate cyclase type 1 [5] = target: T1, Adenylate cyclase type 1; assay: Conversion of [32P] ATP to [32P]-cyclic AMP mediated by adenylate cyclase 1; assay type: functional; conditions: read-out: EC50
Target sequence in this assay (Q08828 whole entry): as the sequence (Q08828 whole entry, looked up) above

Adenylate cyclase type 1 [6] = target: T1, Adenylate cyclase type 1; assay: (§2) Inhibition of [125 I]6-IHPP-forskolin binding to Adenylate cyclase 1; assay type: functional
Target sequence in this assay (Q08828 whole entry): as the sequence (Q08828 whole entry, looked up) above

Adenylate cyclase type 1 [7] = target: T1, Adenylate cyclase type 1; assay: Maximum stimulation activity measured with 100 uM forskolin mediated by adenylate cyclase 1; assay type: functional
Target sequence in this assay (Q08828 whole entry, looked up): as above

Adenylate cyclase type 2 = Adenylate cyclase type 2 (Rattus norvegicus, UniProt P26769); assay: Ability to activate the conversion of [32P] ATP to [32P]-cyclic AMP; assay type: functional
Adenylate cyclase type 1 [8] = target: T1, Adenylate cyclase type 1; assay: as §2
Target sequence in this assay (Q08828 whole entry): as the sequence (Q08828 whole entry, looked up) above

Chain of Adenylate cyclase type 2 (P26769 whole entry): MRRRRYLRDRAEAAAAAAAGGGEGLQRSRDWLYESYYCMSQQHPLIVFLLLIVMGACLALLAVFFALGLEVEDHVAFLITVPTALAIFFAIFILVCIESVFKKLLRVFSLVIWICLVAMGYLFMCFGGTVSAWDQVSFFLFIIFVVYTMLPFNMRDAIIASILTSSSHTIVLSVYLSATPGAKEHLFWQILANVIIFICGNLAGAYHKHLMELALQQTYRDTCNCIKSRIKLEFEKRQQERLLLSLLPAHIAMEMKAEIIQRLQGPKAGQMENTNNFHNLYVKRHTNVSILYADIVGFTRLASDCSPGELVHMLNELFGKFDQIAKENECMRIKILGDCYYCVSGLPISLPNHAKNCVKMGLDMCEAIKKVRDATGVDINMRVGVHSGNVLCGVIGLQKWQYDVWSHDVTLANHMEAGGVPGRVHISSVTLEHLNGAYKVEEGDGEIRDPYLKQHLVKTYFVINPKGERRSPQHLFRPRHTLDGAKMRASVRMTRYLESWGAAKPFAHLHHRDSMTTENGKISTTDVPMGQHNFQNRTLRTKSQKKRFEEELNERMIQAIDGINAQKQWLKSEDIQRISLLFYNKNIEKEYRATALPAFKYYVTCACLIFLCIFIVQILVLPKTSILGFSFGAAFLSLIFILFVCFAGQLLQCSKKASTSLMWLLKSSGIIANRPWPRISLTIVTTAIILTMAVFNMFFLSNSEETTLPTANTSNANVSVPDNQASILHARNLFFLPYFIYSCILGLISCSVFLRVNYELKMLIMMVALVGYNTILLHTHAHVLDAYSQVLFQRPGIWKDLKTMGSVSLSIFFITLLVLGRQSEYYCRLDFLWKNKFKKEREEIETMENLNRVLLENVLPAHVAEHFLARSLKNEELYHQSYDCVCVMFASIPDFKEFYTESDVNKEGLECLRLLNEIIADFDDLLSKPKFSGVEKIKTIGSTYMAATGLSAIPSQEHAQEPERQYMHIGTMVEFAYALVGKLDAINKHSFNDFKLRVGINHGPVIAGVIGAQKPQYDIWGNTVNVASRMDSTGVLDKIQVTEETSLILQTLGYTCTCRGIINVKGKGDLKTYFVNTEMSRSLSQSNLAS

Row | SMILES | Activity (Adenylate cyclase type 1 [1]) | IC50 (Adenylate cyclase type 1 [2]) | EC50 (Adenylate cyclase type 1 [3]) | IC50 (Adenylate cyclase type 1 [4]) | EC50 (Adenylate cyclase type 1 [5]) | IC50 (Adenylate cyclase type 1 [6]) | Activity (Adenylate cyclase type 1 [7]) | EC50 (Adenylate cyclase type 2) | IC50 (Adenylate cyclase type 1 [8])
1 | C=C[C@@]1(C)CC(=O)[C@]2(O)[C@@]3(C)[C@@H](O)CCC(C)(C)[C@@H]3[C@H](OC(=O)NCCOC)[C@H](O)[C@@]2(C)O1 | 84% | 318 nM | > 2000 nM | > 150 nM | 3100 nM | – | – | – | –
2 | C=C[C@@]1(C)CC(=O)[C@]2(O)[C@@]3(C)[C@@H](O)CCC(C)(C)[C@@H]3[C@H](O)[C@H](OC(=O)NCCc3ccc(N)cc3)[C@@]2(C)O1 | 68% | 64 nM | < 2000 nM | < 150 nM | 1100 nM | – | – | – | –
3 | C=C[C@@]1(C)CC(=O)[C@]2(O)[C@@]3(C)[C@@H](O)CCC(C)(C)[C@@H]3[C@H](O)[C@H](OC(=O)NCCc3ccc(O)cc3)[C@@]2(C)O1 | – | 95 nM | < 2000 nM | < 150 nM | 1400 nM | – | 45% | – | –
4 | C=C[C@@]1(C)CC(=O)[C@]2(O)[C@@]3(C)[C@@H](O)CCC(C)(C)[C@@H]3[C@H](OC(=O)NCCc3ccccn3)[C@H](OC(C)=O)[C@@]2(C)O1 | – | 21 nM | < 2000 nM | < 150 nM | 600 nM | – | 97% | – | –

Further lines, results first:

Row | Activity (Adenylate cyclase type 1 [1]) | IC50 (Adenylate cyclase type 1 [2]) | EC50 (Adenylate cyclase type 1 [3]) | IC50 (Adenylate cyclase type 1 [4]) | EC50 (Adenylate cyclase type 1 [5]) | IC50 (Adenylate cyclase type 1 [6]) | Activity (Adenylate cyclase type 1 [7]) | EC50 (Adenylate cyclase type 2) | IC50 (Adenylate cyclase type 1 [8]) | SMILES
5 | 119% | 43 nM | < 2000 nM | < 150 nM | 1400 nM | – | – | – | – | C=C[C@@]1(C)CC(=O)[C@]2(O)[C@@]3(C)[C@@H](O)CCC(C)(C)[C@@H]3[C@H](O)[C@H](OC(=O)NCCO)[C@@]2(C)O1
6 | 81% | 184 nM | < 2000 nM | > 150 nM | 1200 nM | – | – | – | – | C=C[C@@]1(C)CC(=O)[C@]2(O)[C@@]3(C)[C@@H](O)CCC(C)(C)[C@@H]3[C@H](O)[C@H](OC(=O)NCCN3CCCCC3)[C@@]2(C)O1
7 | 89% | 228 nM | > 2000 nM | > 150 nM | 2200 nM | – | – | – | – | C=C[C@@]1(C)CC(=O)[C@]2(O)[C@@]3(C)[C@@H](O)CCC(C)(C)[C@@H]3[C@H](O)[C@H](OC(=O)NCCN(C)C)[C@@]2(C)O1
8 | – | 555 nM | > 2000 nM | – | 4900 nM | > 150 nM | 61% | – | – | C=C[C@@]1(C)CC(=O)[C@]2(O)[C@@]3(C)[C@@H](O)CCC(C)(C)[C@@H]3[C@H](OC(=O)NCCC)[C@H](O)[C@@]2(C)O1
9 | – | 41 nM | – | – | 500 nM | – | 100% | < 2000 nM | < 150 nM | C=C[C@@]1(C)CC(=O)[C@]2(O)[C@@]3(C)[C@@H](O)CCC(C)(C)[C@@H]3[C@H](O)[C@H](OC(C)=O)[C@@]2(C)O1 [COLFORSIN]

Reference: ChEMBL document CHEMBL1129369, “Forskolin carbamates: binding and activation studies with type I adenylyl cyclase” (J Med Chem, 1996)
